Experimental data: ChEMBL document CHEMBL1201862, “PubChem BioAssay data set” (2004)
Activity calls are given as the source filed them. For most assays here, no stated cut-off is given here; in the data, actives have a measured EC50 and inactives only a lower limit.

Assays:
[1] = target: T1, Replicative DNA helicase DnaB (Mycobacterium tuberculosis, UniProt P9WMR3); test: DnaB intein splicing inhibitors, dose response, biochemical, cell-free fluorescence (AID 449749); assay type: functional
T1 sequence (P9WMR3 whole entry): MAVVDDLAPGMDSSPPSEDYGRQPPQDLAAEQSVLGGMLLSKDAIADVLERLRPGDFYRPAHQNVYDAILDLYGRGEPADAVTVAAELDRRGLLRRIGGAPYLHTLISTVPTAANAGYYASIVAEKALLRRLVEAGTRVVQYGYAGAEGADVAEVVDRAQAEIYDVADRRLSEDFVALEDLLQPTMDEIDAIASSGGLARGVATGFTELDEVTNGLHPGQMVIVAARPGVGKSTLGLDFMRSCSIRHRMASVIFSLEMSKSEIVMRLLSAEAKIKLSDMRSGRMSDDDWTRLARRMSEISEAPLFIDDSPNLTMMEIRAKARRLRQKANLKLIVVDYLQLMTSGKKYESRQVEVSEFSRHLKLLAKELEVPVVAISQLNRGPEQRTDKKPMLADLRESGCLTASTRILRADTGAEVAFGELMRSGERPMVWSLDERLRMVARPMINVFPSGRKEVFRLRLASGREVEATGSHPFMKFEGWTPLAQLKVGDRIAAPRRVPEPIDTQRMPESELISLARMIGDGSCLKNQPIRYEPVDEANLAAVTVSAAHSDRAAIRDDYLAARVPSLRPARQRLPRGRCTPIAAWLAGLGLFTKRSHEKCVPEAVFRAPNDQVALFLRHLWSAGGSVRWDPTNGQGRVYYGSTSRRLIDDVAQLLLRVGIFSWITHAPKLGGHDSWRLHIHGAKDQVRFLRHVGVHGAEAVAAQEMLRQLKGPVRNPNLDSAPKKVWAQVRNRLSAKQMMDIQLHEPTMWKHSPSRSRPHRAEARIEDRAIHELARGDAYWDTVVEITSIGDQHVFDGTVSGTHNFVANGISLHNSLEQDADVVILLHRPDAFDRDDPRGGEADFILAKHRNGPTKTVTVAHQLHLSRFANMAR

[2] = target: T2, Protein RecA (Mycobacterium tuberculosis, UniProt P9WHJ3); test: Fluorescence Cell-Free Homogeneous Dose Retest to Identify Inhibitors of RecA-Intein Splicing Activity. [Related pubchem assays (depositor defined):AID2097, AID2223, AID489010, AID492950]; assay type: functional
T2 sequence (P9WHJ3 whole entry): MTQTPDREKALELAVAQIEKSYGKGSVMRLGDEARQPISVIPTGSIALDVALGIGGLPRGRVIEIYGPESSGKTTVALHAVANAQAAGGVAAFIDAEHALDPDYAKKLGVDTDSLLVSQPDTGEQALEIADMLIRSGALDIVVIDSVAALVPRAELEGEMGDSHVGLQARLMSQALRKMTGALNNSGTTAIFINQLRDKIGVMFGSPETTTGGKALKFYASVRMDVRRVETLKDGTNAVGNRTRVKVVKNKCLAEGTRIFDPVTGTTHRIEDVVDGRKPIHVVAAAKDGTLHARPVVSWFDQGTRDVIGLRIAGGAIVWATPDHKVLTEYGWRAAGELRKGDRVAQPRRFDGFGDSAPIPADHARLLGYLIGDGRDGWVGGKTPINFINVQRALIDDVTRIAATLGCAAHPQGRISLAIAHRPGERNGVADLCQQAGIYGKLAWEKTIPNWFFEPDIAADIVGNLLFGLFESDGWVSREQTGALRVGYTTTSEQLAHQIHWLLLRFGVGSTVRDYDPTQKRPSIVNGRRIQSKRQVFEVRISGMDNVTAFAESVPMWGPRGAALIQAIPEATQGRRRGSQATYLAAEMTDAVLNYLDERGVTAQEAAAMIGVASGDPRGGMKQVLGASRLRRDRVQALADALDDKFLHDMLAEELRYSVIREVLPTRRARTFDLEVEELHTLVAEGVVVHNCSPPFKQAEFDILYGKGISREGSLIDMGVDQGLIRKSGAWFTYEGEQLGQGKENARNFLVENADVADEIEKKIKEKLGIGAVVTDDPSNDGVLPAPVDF

[3] = target: T3, Corticotropin-releasing factor receptor 2/Corticotropin-releasing factor-binding protein (Homo sapiens, UniProt P24387+Q13324); test: Dose Response confirmation of uHTS hits for small molecule antagonists of the CRF-binding protein and CRF-R2 receptor complex.; assay type: functional; details: read-out: IC50_Mean
T3 sequence (Q13324 whole entry): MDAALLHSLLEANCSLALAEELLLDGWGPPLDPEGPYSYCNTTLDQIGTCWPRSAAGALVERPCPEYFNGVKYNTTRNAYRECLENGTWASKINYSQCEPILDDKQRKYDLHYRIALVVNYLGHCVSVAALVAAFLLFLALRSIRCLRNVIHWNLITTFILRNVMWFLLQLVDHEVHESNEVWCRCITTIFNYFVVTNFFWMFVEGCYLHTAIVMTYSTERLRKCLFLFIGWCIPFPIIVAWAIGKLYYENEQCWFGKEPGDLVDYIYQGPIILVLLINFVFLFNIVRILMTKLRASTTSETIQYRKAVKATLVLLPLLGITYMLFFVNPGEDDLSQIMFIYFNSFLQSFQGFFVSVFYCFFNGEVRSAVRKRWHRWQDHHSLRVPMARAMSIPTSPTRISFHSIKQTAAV
T3 sequence (P24387 whole entry): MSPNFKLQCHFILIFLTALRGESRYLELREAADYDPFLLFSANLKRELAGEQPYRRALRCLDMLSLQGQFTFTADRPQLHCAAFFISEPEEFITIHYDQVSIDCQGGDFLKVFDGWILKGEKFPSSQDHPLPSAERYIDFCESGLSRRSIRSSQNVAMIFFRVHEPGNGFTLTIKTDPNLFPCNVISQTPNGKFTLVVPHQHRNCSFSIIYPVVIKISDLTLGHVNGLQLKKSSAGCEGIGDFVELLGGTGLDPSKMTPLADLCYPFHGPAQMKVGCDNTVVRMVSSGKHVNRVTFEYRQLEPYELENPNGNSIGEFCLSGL

[4] = target: T4, RNA-binding protein pos-1 (Caenorhabditis elegans, UniProt G5EF15); test: inhibitors of POS-1/mex-3 RNA binding, dose response, biochemical, fluorescence polarization (AID 1964);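 further: purified POS-1 fused to maltose binding protein made in E. coli; potency of compounds blocking POS-1 binding to fluorescent RNA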
T4 sequence (G5EF15 whole entry): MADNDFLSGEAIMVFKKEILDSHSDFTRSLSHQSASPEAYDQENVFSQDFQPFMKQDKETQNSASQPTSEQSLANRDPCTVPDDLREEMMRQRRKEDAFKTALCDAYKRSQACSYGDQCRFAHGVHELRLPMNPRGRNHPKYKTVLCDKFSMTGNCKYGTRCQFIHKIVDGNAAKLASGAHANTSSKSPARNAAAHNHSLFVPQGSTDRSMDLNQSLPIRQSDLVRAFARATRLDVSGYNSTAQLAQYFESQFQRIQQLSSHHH

[5] = target: T3, Corticotropin-releasing factor receptor 2/Corticotropin-releasing factor-binding protein; test: activators of CRF receptor 2 with binding protein – uHTS hits, confirmation (AID 602473); assay type: functional; details: read-out: EC50_Mean
[6] = target: T5, Zinc finger protein mex-5 (Caenorhabditis elegans, UniProt Q9XUB2); test: MEX-5/TCR-2 RNA interaction inhibitors, dose response, biochemical, C. elegans, fluorescence polarization (AID 1960)
T5 sequence (Q9XUB2 whole entry): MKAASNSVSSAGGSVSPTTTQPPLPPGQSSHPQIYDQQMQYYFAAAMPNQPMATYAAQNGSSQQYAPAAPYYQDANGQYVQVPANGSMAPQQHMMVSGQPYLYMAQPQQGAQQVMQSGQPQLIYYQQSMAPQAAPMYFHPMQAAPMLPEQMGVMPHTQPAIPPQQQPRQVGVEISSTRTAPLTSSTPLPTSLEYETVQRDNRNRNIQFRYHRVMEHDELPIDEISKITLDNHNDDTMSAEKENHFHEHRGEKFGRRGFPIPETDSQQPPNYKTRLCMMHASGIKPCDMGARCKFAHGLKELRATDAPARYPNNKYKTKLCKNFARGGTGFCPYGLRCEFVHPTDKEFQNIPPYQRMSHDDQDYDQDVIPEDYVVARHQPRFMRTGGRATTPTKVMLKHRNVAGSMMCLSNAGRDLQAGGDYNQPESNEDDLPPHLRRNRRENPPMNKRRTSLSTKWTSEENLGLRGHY

[7] = HEp-2 cell cytotoxicity, dose response, cytotoxicity control for RSV inhibitor project, HTS (AID 2410); assay type: functional; details: human respiratory syncytial virus
[8] = target: T6, Heat shock factor protein 1 (Mus musculus, UniProt P38532); test: inhibition of MG132-induced HSE-luciferase signal, confirmation, cell-based, NIH3T3, luminescence, dose retest (AID 2382); assay type: functional;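 further: NIH3T3 fibroblasts with HSF1-driven luciferase reporter stressed by proteasome inhibitor MG132; luminescence from HSF1-driven luciferase expression after 8 hours of MG132 stress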
T6 sequence (P38532 whole entry): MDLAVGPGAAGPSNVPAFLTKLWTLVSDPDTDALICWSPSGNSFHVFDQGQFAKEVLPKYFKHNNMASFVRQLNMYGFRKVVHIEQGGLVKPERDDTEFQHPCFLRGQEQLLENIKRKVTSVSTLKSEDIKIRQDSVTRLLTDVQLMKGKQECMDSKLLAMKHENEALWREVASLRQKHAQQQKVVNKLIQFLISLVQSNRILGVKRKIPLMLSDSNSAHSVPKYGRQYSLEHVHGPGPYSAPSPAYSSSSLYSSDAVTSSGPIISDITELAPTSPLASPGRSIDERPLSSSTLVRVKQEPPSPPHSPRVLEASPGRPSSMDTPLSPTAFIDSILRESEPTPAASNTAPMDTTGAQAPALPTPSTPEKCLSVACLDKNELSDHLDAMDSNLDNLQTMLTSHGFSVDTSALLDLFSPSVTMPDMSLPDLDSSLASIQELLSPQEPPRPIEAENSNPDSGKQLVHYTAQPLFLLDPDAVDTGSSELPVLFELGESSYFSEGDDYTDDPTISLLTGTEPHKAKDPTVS

For `O=C(c1ccccc1)c1c[nH]c(C(=O)C(Cl)(Cl)Cl)c1`, the AC50 [1] was 21.7 µM (active) and the EC50 [2] was 8.23 µM (active).

With `N#Cc1c(N)n(-c2cccc(C(=O)O)c2)c2nc3ccccc3nc12` the IC50 [3] was > 47.1 µM (inactive), the EC50 [4] was > 300 µM (not active) and the EC50 [5] was 13.7 µM (active). For the same compound, the EC50 [6] was > 300 µM (not active).

For `CC1=C(C#N)C(=O)N(C)C(=O)/C1=C\NNc1ccc(F)cc1`, the EC50 [4] was > 300 µM (not active) and the EC50 [6] was > 300 µM (not active).

With `Cc1nn(-c2ccccc2)c2c1C1(C(=O)N3c4c(cccc41)C(C)CC3(C)C)C(C#N)=C(N)O2` (centres undefined) the AC50 [1] was 4.61 µM (active) and the EC50 [2] was 3.2 µM (active).

In the case of `CCc1ccc(C2=NNC(=Nc3c(C)n(C)n(-c4ccccc4)c3=O)SC2)cc1`, the CC50 [7] is reported as 20.1 µM (active).

For `CCOP(=O)(OCC)C(Nc1cccc([N+](=O)[O-])c1)c1ccccc1` (centres undefined), the IC50 [3] was > 47.1 µM (inactive), the EC50 [4] was > 300 µM (not active) and the EC50 [5] was > 53 µM (inactive). For the same compound, the EC50 [6] was > 300 µM (not active).

For `CSc1cccc(NC(=O)N2CCc3ccc(NC(=O)c4ccccn4)cc3C2)c1`, the CC50 [7] was 14.4 µM (active).

In the case of `CC1=Nc2ccc(C)c3nc(C)cc(c23)N1c1ccc(C)cc1`, the EC50 [8] is reported as > 195 µM (not active) and the CC50 [7] is reported as > 50 µM (active).

With `Cc1nc2ccccc2c2c1C(=O)N(C(C)C)C2=O` the AC50 [1] was 192 µM (active) and the EC50 [2] was 0.851 µM (active).

In the case of `COC(=O)CNc1cccc(C(F)(F)F)c1`, the EC50 [4] is reported as > 300 µM (not active) and the EC50 [6] is reported as > 300 µM (not active).

With `Cc1c(OCC(=O)NCC(O)c2ccccc2)ccc2c3c(c(=O)oc12)CCCC3` (centres undefined) the CC50 [7] was 48.5 µM (active).

With `O=C1NC2=C(CCc3ccccc32)C(c2ccccc2)N1` (centres undefined) the AC50 [1] was 2.19 µM (active) and the EC50 [2] was 1.67 µM (active).

With `Cc1ccccc1OCCNC(=O)c1ccc2ccccc2n1` the CC50 [7] was 24.5 µM (active).

For `O=C(CSc1nnc(-c2ccccc2Cl)o1)Oc1ccc(Br)cc1`, the AC50 [1] was 1.42 µM (active) and the EC50 [2] was 3 µM (active).

With `CSc1ccc(/C=N/n2nnnc2N)cc1` the CC50 [7] was 48.5 µM (active).

With `O=C(NC(NC(=S)Nc1ccc(Cl)cc1Cl)C(Cl)(Cl)Cl)c1cccc([N+](=O)[O-])c1` (centres undefined) the AC50 [1] was 2.33 µM (active) and the EC50 [2] was 3.3 µM (active).

With `CC1(C)C(=O)NCCN1C(=O)CSc1nccc(-c2ccc(Br)cc2)n1` the CC50 [7] was 34.1 µM (active).

With `COc1ccc(/C(C)=N/Nc2nc3ccccc3nc2C)cc1OC` the EC50 [4] was 5.07 µM (inconclusive) and the EC50 [6] was 66.5 µM (inconclusive).

In the case of `COC(=O)CCCC1=CC2=CC(=O)C(C)(OC(=O)C3CCCC3)C(=O)C2=CO1` (centres undefined), the EC50 [4] is reported as 23.3 µM (active) and the EC50 [6] is reported as 57.7 µM (inconclusive).

In the case of `Cc1c(-c2nc[nH]n2)sc(C#N)c1-c1ccccc1`, the IC50 [3] is reported as > 47.1 µM (inactive), the EC50 [5] is reported as > 53 µM (inactive) and the CC50 [7] is reported as 24.4 µM (active).

With `N#Cc1ccc(CN2CCN(CC(=O)NCCc3ccc(Cl)cc3Cl)CC2)cc1` the CC50 [7] was 22.9 µM (active).

For `Cc1nn(Cc2ccccc2)c2c1C(c1ccco1)C(C#N)=C(N)O2` (centres undefined), the AC50 [1] was > 380 µM (inactive) and the EC50 [2] was 3.15 µM (active).

In the case of `CC(=O)c1c(O)cc(O)cc1CC(=O)O`, the EC50 [4] is reported as > 300 µM (inconclusive) and the EC50 [6] is reported as 190 µM (inconclusive).
